PubChem BioAssay (NCI)
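Briefly, cells in 96-well plates were exposed to five compound concentrations for 48 h, and endpoints were estimated by linear interpolation. The concentration for 50% growth inhibition is given as GI50. TGI is the concentration that stops growth completely.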

Columns and labels:
Assay in all cases: NCI anticancer screen, dose series, 48 h
MCF7 breast = tested on: MCF7 breast
COLO 205 colon = tested on: COLO 205 colon
KM12 colon = tested on: KM12 colon
T-47D breast = tested on: T-47D breast
MDA-MB-435 = tested on: MDA-MB-435
HCC-2998 colon = tested on: HCC-2998 colon
SK-MEL-5 melanoma = tested on: SK-MEL-5 melanoma
SF-295 CNS = tested on: SF-295 CNS
HOP-62 NSCLC = tested on: HOP-62 NSCLC
NCI/ADR-RES ovarian = tested on: NCI/ADR-RES ovarian
SF-539 CNS = tested on: SF-539 CNS
MDA-N = tested on: MDA-N
HL-60(TB) leukemia = tested on: HL-60(TB) leukemia
SN12C renal = tested on: SN12C renal
HCT-116 colon = tested on: HCT-116 colon
U251 CNS = tested on: U251 CNS
RPMI-8226 leukemia = tested on: RPMI-8226 leukemia
OVCAR-8 ovarian = tested on: OVCAR-8 ovarian
MALME-3M melanoma = tested on: MALME-3M melanoma
M14 melanoma = tested on: M14 melanoma
MOLT-4 leukemia = tested on: MOLT-4 leukemia
NCI-H522 lung = tested on: NCI-H522 lung
ACHN renal = tested on: ACHN renal
UACC-62 melanoma = tested on: UACC-62 melanoma
A498 renal = tested on: A498 renal
HT29 colon = tested on: HT29 colon
SK-MEL-2 melanoma = tested on: SK-MEL-2 melanoma
786-0 renal = tested on: 786-0 renal
NCI-H23 lung = tested on: NCI-H23 lung
A549 NSCLC = tested on: A549 NSCLC
HCT-15 colon = tested on: HCT-15 colon
OVCAR-3 ovarian = tested on: OVCAR-3 ovarian
SNB-19 CNS = tested on: SNB-19 CNS
K-562 leukemia = tested on: K-562 leukemia
PC-3 prostate = tested on: PC-3 prostate
LOX IMVI melanoma = tested on: LOX IMVI melanoma
IGROV1 ovarian = tested on: IGROV1 ovarian
UO-31 renal = tested on: UO-31 renal
HS 578T breast = tested on: HS 578T breast
MDA-MB-231 breast = tested on: MDA-MB-231 breast
UACC-257 melanoma = tested on: UACC-257 melanoma
OVCAR-5 ovarian = tested on: OVCAR-5 ovarian
SK-MEL-28 melanoma = tested on: SK-MEL-28 melanoma
SW-620 colon = tested on: SW-620 colon
NCI-H460 lung = tested on: NCI-H460 lung
TK-10 renal = tested on: TK-10 renal
EKVX NSCLC = tested on: EKVX NSCLC
BT-549 breast = tested on: BT-549 breast
HOP-92 NSCLC = tested on: HOP-92 NSCLC
SK-OV-3 ovarian = tested on: SK-OV-3 ovarian
RXF 393 renal = tested on: RXF 393 renal
NCI-H226 lung = tested on: NCI-H226 lung
DU-145 prostate = tested on: DU-145 prostate
CAKI-1 renal = tested on: CAKI-1 renal
OVCAR-4 ovarian = tested on: OVCAR-4 ovarian
SNB-75 CNS = tested on: SNB-75 CNS
CCRF-CEM leukemia = tested on: CCRF-CEM leukemia
SR leukemia = tested on: SR leukemia
SF-268 CNS = tested on: SF-268 CNS

## O=C1C=C(NCCc2ccc(O)c([N+](=O)[O-])c2)C(=O)c2[nH]cnc21
MCF7 breast
  TGI: 78.1 µM
COLO 205 colon
  TGI: > 100 µM
KM12 colon
  TGI: > 100 µM
T-47D breast
  TGI: 40.7 µM
MDA-MB-435
  TGI: 33.7 µM
HCC-2998 colon
  TGI: > 100 µM
SK-MEL-5 melanoma
  TGI: 30.3 µM
SF-295 CNS
  TGI: 31.1 µM
HOP-62 NSCLC
  TGI: > 100 µM
NCI/ADR-RES ovarian
  TGI: > 100 µM
SF-539 CNS
  TGI: 90.5 µM
MDA-N
  TGI: 31.2 µM
HL-60(TB) leukemia
  TGI: 47.8 µM
SN12C renal
  TGI: > 100 µM
HCT-116 colon
  TGI: > 100 µM
U251 CNS
  TGI: > 100 µM
RPMI-8226 leukemia
  TGI: > 100 µM
OVCAR-8 ovarian
  TGI: 68.7 µM
MALME-3M melanoma
  TGI: 17.6 µM
M14 melanoma
  TGI: 32.3 µM
MOLT-4 leukemia
  TGI: 38.2 µM
NCI-H522 lung
  TGI: 57.8 µM
ACHN renal
  TGI: > 100 µM
UACC-62 melanoma
  TGI: 40.7 µM
A498 renal
  TGI: > 100 µM
HT29 colon
  TGI: > 100 µM
SK-MEL-2 melanoma
  TGI: 51.1 µM
786-0 renal
  TGI: > 100 µM
NCI-H23 lung
  TGI: 45 µM
A549 NSCLC
  TGI: 93.4 µM
HCT-15 colon
  TGI: > 100 µM
OVCAR-3 ovarian
  TGI: 46.1 µM
SNB-19 CNS
  TGI: > 100 µM
K-562 leukemia
  TGI: 42.7 µM
PC-3 prostate
  TGI: > 100 µM
LOX IMVI melanoma
  TGI: > 100 µM
IGROV1 ovarian
  TGI: 54.8 µM
UO-31 renal
  TGI: > 100 µM
HS 578T breast
  TGI: > 100 µM
MDA-MB-231 breast
  TGI: > 100 µM
UACC-257 melanoma
  TGI: 38.7 µM
OVCAR-5 ovarian
  TGI: > 100 µM
SK-MEL-28 melanoma
  TGI: 30.4 µM
SW-620 colon
  TGI: > 100 µM
NCI-H460 lung
  TGI: 69.6 µM
TK-10 renal
  TGI: > 100 µM
EKVX NSCLC
  TGI: 72.2 µM

## C[C@H]1C[C@@H](n2c(Nc3ccc(OC(F)(F)F)cc3)nc3cc(CCC(=O)O)ccc32)CC(C)(C)C1
MCF7 breast
  GI50: 6.29 µM
  TGI: 22.6 µM
COLO 205 colon
  GI50: 18.8 µM
  TGI: 39.4 µM
KM12 colon
  GI50: 10.5 µM
  TGI: 24 µM
T-47D breast
  GI50: 14.3 µM
  TGI: 44.5 µM
MDA-MB-435
  GI50: 10.4 µM
  TGI: 22.9 µM
HCC-2998 colon
  GI50: 6.68 µM
  TGI: 20.8 µM
SK-MEL-5 melanoma
  GI50: 5.38 µM
  TGI: 17.9 µM
BT-549 breast
  GI50: 3.13 µM
  TGI: 12 µM
SF-295 CNS
  GI50: 4.85 µM
  TGI: 19.1 µM
HOP-92 NSCLC
  GI50: 16.4 µM
  TGI: 32.1 µM
HOP-62 NSCLC
  GI50: 20.6 µM
  TGI: 39.4 µM
SK-OV-3 ovarian
  GI50: 20 µM
  TGI: 35.4 µM
RXF 393 renal
  GI50: 11.3 µM
  TGI: 25.2 µM
NCI/ADR-RES ovarian
  GI50: 11.7 µM
  TGI: 27.5 µM
SF-539 CNS
  GI50: 13.1 µM
  TGI: 37.7 µM
NCI-H226 lung
  GI50: 17.8 µM
  TGI: 42.4 µM
DU-145 prostate
  GI50: 13.8 µM
  TGI: 27.2 µM
HL-60(TB) leukemia
  GI50: 10.3 µM
  TGI: 29.1 µM
SN12C renal
  GI50: 9.95 µM
  TGI: 28 µM
HCT-116 colon
  GI50: 5.04 µM
  TGI: 18.5 µM
U251 CNS
  GI50: 11.2 µM
  TGI: 28.1 µM
RPMI-8226 leukemia
  GI50: 10.1 µM
  TGI: 50.9 µM
OVCAR-8 ovarian
  GI50: 13.2 µM
  TGI: 35.1 µM
CAKI-1 renal
  GI50: 15.4 µM
  TGI: 28.8 µM
MALME-3M melanoma
  GI50: 16.2 µM
  TGI: 37.3 µM
M14 melanoma
  GI50: 7.09 µM
  TGI: 25 µM
MOLT-4 leukemia
  GI50: 9.37 µM
  TGI: 32.6 µM
NCI-H522 lung
  GI50: 14 µM
  TGI: 33.2 µM
ACHN renal
  GI50: 13.1 µM
  TGI: 27.1 µM
OVCAR-4 ovarian
  GI50: 11.2 µM
  TGI: 29.1 µM
SNB-75 CNS
  GI50: 13.8 µM
  TGI: 28 µM
UACC-62 melanoma
  GI50: 4.91 µM
  TGI: 17.7 µM
A498 renal
  GI50: 11.1 µM
  TGI: 23.2 µM
HT29 colon
  GI50: 14.6 µM
  TGI: 30.9 µM
SK-MEL-2 melanoma
  GI50: 15 µM
  TGI: 34.6 µM
786-0 renal
  GI50: 5.5 µM
  TGI: 19.7 µM
NCI-H23 lung
  GI50: 12.9 µM
  TGI: 30.5 µM
A549 NSCLC
  GI50: 11.1 µM
  TGI: 30.2 µM
HCT-15 colon
  GI50: 5.69 µM
  TGI: 18.9 µM
OVCAR-3 ovarian
  GI50: 13 µM
  TGI: 25.8 µM
SNB-19 CNS
  GI50: 12.1 µM
  TGI: 31.2 µM
K-562 leukemia
  GI50: 11.9 µM
  TGI: 37.7 µM
PC-3 prostate
  GI50: 11.9 µM
  TGI: 27.9 µM
LOX IMVI melanoma
  GI50: 11.8 µM
  TGI: 25.9 µM
IGROV1 ovarian
  GI50: 12.6 µM
  TGI: 28.7 µM
UO-31 renal
  GI50: 9.38 µM
  TGI: 21.5 µM
CCRF-CEM leukemia
  GI50: 16.2 µM
  TGI: 44.5 µM
SR leukemia
  GI50: 6.23 µM
  TGI: 36.6 µM
HS 578T breast
  GI50: 10.5 µM
  TGI: 31.1 µM
MDA-MB-231 breast
  GI50: 16 µM
  TGI: 32.9 µM
UACC-257 melanoma
  GI50: 16.6 µM
  TGI: 39.4 µM
OVCAR-5 ovarian
  GI50: 17 µM
  TGI: 31.5 µM
SK-MEL-28 melanoma
  GI50: 8.26 µM
  TGI: 22.5 µM
SW-620 colon
  GI50: 15.3 µM
  TGI: 32.5 µM
NCI-H460 lung
  GI50: 9.74 µM
  TGI: 24.7 µM
TK-10 renal
  GI50: 20.6 µM
  TGI: 46.9 µM
SF-268 CNS
  GI50: 12.1 µM
  TGI: 27.7 µM
EKVX NSCLC
  GI50: 10.5 µM
  TGI: 32.2 µM
